Source: patent publication US8334268B2, “Insecticidal active ingredient combinations (formononetins + insecticides)” (priority 2006, dated 2012)

Tested on: Meloidogyne incognita
Assay: Meloidogyne incognita test (MELGIN), gall formation on lettuce roots
Type: in vivo
Conditions: 0.5 mg ai/seed, lettuce seed dressing; nematicidal action by formation of galls; 100% = no galls
Procedure: To produce a suitable preparation of active compound, 1 part by weight of active compound is mixed with the stated amounts of solvent and emulsifier, and the concentrate is diluted with water to the desired concentration.
Lettuce seeds are dressed with the desired amount of formononetin. Vessels are filled with soil infected with mycorrhiza, active compound solution, Meloidogyne incognita egg/larvae suspension and the treated lettuce seeds. The lettuce seeds germinate and the plants develop. On the roots, galls are formed.
After the desired period of time, the nematicidal action is determined in % by the formation of galls. 100% means that no galls have been found; 0% means that the number of galls on the treated plants corresponds to that of the untreated control.

COc1ccc(-c2coc3cc(O)ccc3c2=O)cc1 [Formononetin of the formula (I), formononetin]
Effect in % after 21 d: 3.3%
